{
  "source": "paper PMC12041767",
  "about": "(Journal of immunology (Baltimore, Md. : 1950), 2025)",
  "key": {"HLA-E*01:03": {"target": "HLA-E*01:03 (Homo sapiens, UniProt P13747)", "format": "binding", "conditions": "tested at least two times, median, Figure 1"}, "TCR 6": {"system": "TCR 6", "assay": "HLA-E*01:03 tetramer (TM) staining of TCR 6 transduced Jurkat cells", "conditions": "for Interaction of thermal exchanged HLA-E TM/peptide complex with TCR 6, in words: thermal exchanged HLA-E*01:03 TM staining on Jurkat TCR 6 cells, tested once, Figure 2C-E"}, "TCR KK50.4 [1]": {"system": "TCR KK50.4", "assay": "HLA-E*01:03 tetramer (TM) staining of TCR KK50.4 transduced Jurkat cells", "conditions": "for Interaction of thermal exchanged HLA-E TM/peptide complex with TCR KK50.4, in words: thermal exchanged HLA-E*01:03 TM staining on Jurkat TCR KK50.4 cells, tested once, Figure 2C"}, "NKG2A/CD94 [2]": {"target": "T1, NKG2A/CD94 (Homo sapiens, UniProt P26715+Q13241)", "T1 sequence (P26715 whole entry)": "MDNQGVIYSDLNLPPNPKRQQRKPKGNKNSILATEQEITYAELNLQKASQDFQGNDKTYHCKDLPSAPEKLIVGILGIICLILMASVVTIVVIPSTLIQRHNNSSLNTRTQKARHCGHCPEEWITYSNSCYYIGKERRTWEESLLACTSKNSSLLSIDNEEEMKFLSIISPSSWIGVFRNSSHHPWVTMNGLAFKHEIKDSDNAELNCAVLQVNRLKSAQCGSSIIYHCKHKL", "T1 sequence (Q13241 whole entry)": "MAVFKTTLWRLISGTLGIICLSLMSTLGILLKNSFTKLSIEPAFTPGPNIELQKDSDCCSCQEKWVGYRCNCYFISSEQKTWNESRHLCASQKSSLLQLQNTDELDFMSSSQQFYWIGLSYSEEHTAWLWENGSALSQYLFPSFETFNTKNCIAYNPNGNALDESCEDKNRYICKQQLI", "format": "binding"}, "NKG2A/CD94 [3]": {"target": "T1, NKG2A/CD94", "conditions": "cited from earlier work"}, "primary NKG2C+ NK cells": {"system": "primary NKG2C+ NK cells", "conditions": "stimulation with HLA-E/peptide presenting cells, compared to other position 8 variants from clinical CMV isolates; cited from earlier work"}, "TCR KK50.4 [4]": {"system": "TCR KK50.4", "format": "cell-based", "conditions": "100 μM peptide, median, n=3 with two technical replicates, Figure 3B, C"}, "[5]": {"conditions": "S/P relative to positive control […] or […]"}, "[6]": {"conditions": "conventional HLA-E TMs folded with wildtype peptide, Figure 2B"}, "[7]": {"conditions": "UV exchange 1 hr at 4°C, ELISA absorbance 450 nm"}},
  "note": "Like-named read-outs stand apart in the source and are kept apart here.",
  "data": [
    {"sequence": "VLAPRDLLL [VLAPRTLLL Asp 6]", "values": [
      {"measurement": "Peptide binding affinity for HLA-E*01:03 (signal to positive, S/P, ratio), in words", "setting": "HLA-E*01:03; [5]", "result": "could not bind"}
    ]},
    {"sequence": "VLAPRPLLL [VLAPRTLLL Pro 6]", "values": [
      {"measurement": "Peptide binding affinity for HLA-E*01:03 (signal to positive, S/P, ratio), in words", "setting": "HLA-E*01:03; [5]", "result": "strong binders (key: The S/P thresholds to define binders or strong binders are 0.08 and 0.18, respectively; The S/P thresholds to define binders or strong binders are 0.08 and 0.18, respectively)"}
    ]},
    {"sequence": "VLAPRRLLL [VLAPRTLLL Arg 6]", "values": [
      {"measurement": "Peptide binding affinity for HLA-E*01:03 (signal to positive, S/P, ratio), in words", "setting": "HLA-E*01:03; [5]", "result": "could not bind"}
    ]},
    {"sequence": "VLAPRTDLL [VLAPRTLLL Asp 7]", "values": [
      {"measurement": "Peptide binding affinity for HLA-E*01:03 (signal to positive, S/P, ratio), in words", "setting": "HLA-E*01:03; [5]", "result": "could not bind"}
    ]},
    {"sequence": "VLAPRTLGL [VLAPRTLLL Gly 8]", "values": [
      {"measurement": "Peptide binding affinity for HLA-E*01:03 (signal to positive, S/P, ratio), in words", "setting": "HLA-E*01:03; [5]", "result": "could not bind"}
    ]},
    {"sequence": "VLAPRTLLA [VLAPRTLLL Ala 9]", "values": [
      {"measurement": "Peptide binding affinity for HLA-E*01:03 (signal to positive, S/P, ratio), in words", "setting": "HLA-E*01:03; [5]", "result": "could not bind"}
    ]},
    {"sequence": "VLAPRTLLL [reference compound]", "values": [
      {"measurement": "Interaction of conventional HLA-E TM with TCR 6, in words", "setting": "TCR 6; [6]", "result": "can interact"},
      {"measurement": "Interaction of conventional HLA-E TM with TCR KK50.4, in words", "setting": "TCR KK50.4 [1]; [6]", "result": "could only interact with the HLA-E/[…] complex"},
      {"measurement": "Interaction of conventional HLA-E TM with NKG2A/CD94, in words", "setting": "NKG2A/CD94 [2]", "result": "can interact"},
      {"measurement": "Peptide binding affinity for HLA-E*01:03 (signal to positive, S/P, ratio), in words", "setting": "HLA-E*01:03; [5]", "result": "high affinity"}
    ]},
    {"sequence": "VLAPRTPLL [VLAPRTLLL Pro 7]", "values": [
      {"measurement": "Peptide binding affinity for HLA-E*01:03 (signal to positive, S/P, ratio), in words", "setting": "HLA-E*01:03; [5]", "result": "strong binders (key: The S/P thresholds to define binders or strong binders are 0.08 and 0.18, respectively; The S/P thresholds to define binders or strong binders are 0.08 and 0.18, respectively)"}
    ]},
    {"sequence": "VLAPRTRLL [VLAPRTLLL Arg 7]", "values": [
      {"measurement": "Peptide binding affinity for HLA-E*01:03 (signal to positive, S/P, ratio), in words", "setting": "HLA-E*01:03; [5]", "result": "could not bind"}
    ]},
    {"sequence": "VMAARTLIL", "values": [
      {"measurement": "Interaction of thermal exchanged HLA-E TM/peptide complex with TCR KK50.4, in words", "setting": "TCR KK50.4 [1]", "result": "interacted"}
    ]},
    {"sequence": "VMAPRALIL", "values": [
      {"measurement": "Interaction of thermal exchanged HLA-E TM/peptide complex with TCR 6, in words", "setting": "TCR 6", "result": "interacted"}
    ]},
    {"sequence": "VMAPRPLIL", "values": [
      {"measurement": "Interaction of thermal exchanged HLA-E TM/peptide complex with TCR 6, in words", "setting": "TCR 6", "result": "interacted"},
      {"measurement": "Peptide binding affinity for HLA-E*01:03 (signal to positive, S/P, ratio), in words", "setting": "HLA-E*01:03; [7]", "result": "strong binders (The S/P thresholds to define binders or strong binders are 0.08 and 0.18, respectively)"}
    ]},
    {"sequence": "VMAPRTLFL", "values": [
      {"measurement": "Level of NKG2A/CD94 signaling among VL9-peptides", "setting": "NKG2A/CD94 [3]", "result": "highest level of NKG2A/CD94 signaling"},
      {"measurement": "CD107a expression and cytokine secretion of primary NKG2C+ NK cells", "setting": "primary NKG2C+ NK cells", "result": "highest level of CD107a expression and cytokine secretion"}
    ]},
    {"sequence": "VMAPRTLIF", "values": [
      {"measurement": "TCR KK50.4 triple reporter activation, in words", "setting": "TCR KK50.4 [4]", "result": "still induced TCR KK50.4 activation"}
    ]},
    {"sequence": "VMAPRTLIW", "values": [
      {"measurement": "Interaction of thermal exchanged HLA-E TM/peptide complex with TCR 6, in words", "setting": "TCR 6", "result": "not TCR 6"},
      {"measurement": "Interaction of thermal exchanged HLA-E TM/peptide complex with TCR KK50.4, in words", "setting": "TCR KK50.4 [1]", "result": "recognized by TCR KK50.4"}
    ]},
    {"sequence": "VMAPRTPIL", "values": [
      {"measurement": "Peptide binding affinity for HLA-E*01:03 (signal to positive, S/P, ratio), in words", "setting": "HLA-E*01:03; [7]", "result": "strong binders (The S/P thresholds to define binders or strong binders are 0.08 and 0.18, respectively)"}
    ]}
  ]
}
